{
  "source": "patent US5610174A",
  "about": "“Use of α1A -selective adrenoceptor agonists for the treatment of urinary incontinence” (priority 1995, dated 1997)",
  "key": {"[1]": {"target": "T1, human urethra (α1-adrenoceptor) (Homo sapiens, UniProt P35348)", "T1 construct": "Tissue samples from the proximal urethra of male humans; from tissue; host or cells: human male proximal urethra strips", "T1 sequence (P35348 1-466)": "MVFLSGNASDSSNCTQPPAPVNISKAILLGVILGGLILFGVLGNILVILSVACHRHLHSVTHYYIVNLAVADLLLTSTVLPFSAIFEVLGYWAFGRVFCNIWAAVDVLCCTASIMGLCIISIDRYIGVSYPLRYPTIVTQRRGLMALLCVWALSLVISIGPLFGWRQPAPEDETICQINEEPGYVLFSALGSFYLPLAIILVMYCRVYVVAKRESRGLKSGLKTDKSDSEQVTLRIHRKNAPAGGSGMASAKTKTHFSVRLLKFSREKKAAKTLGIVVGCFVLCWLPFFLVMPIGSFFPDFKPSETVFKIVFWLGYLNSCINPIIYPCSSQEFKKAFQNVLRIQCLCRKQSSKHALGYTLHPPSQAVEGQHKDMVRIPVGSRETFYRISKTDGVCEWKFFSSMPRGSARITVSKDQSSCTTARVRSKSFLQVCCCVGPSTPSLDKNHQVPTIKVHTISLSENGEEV", "experiment": "Contractile study in isolated human male urethra", "from_the_text": "(§1) In addition, similar studies were done using bladder neck tissue from female dogs. In order to identify the specific receptor subtype in each tissue, the pharmacological profile was compared to the profiles for these same drugs at the cloned human α1A, α1B, or α1C subtypes.\n(§2) Tissue samples from the proximal urethra of male humans and male and female rabbits, as well as tissue samples from both the proximal urethra and bladder neck of male and female dogs were cut into transverse strips (3×10 mm) and suspended under 0.5 g tension in Krebs' physiological buffer at 37° C. To determine agonist potency (pEC50 )and antagonist affinity constants (pKB), concentration-effect curves to the non-selective agonist phenylepherine were constructed in the absence and in the presence of increasing concentrations of the antagonist. Up to four sequential curves were constructed in each tissue. Antagonists were allowed to equilibrate for 1h before each concentration-effect curve, and the drugs were completely washed out in between successive curves. In each experiment, one tissue served as a \"time control\", in which no antagonist was added so that changes in tissue sensitivity could be assessed as a function of time. […] In instances in which a single concentration of antagonist was used, pKB values were determined by the equation: […], where CR is defined as the ratio of the agonist EC50 in the presence of the antagonist to that in the absence of the antagonist."}, "human α1B adrenoceptor": {"target": "T2, human α1B adrenoceptor (Homo sapiens, UniProt P35368)", "T2 construct": "The entire coding region of the α1B receptor (1563 bp); expressed in transfected cells", "T2 sequence (P35368 1-520)": "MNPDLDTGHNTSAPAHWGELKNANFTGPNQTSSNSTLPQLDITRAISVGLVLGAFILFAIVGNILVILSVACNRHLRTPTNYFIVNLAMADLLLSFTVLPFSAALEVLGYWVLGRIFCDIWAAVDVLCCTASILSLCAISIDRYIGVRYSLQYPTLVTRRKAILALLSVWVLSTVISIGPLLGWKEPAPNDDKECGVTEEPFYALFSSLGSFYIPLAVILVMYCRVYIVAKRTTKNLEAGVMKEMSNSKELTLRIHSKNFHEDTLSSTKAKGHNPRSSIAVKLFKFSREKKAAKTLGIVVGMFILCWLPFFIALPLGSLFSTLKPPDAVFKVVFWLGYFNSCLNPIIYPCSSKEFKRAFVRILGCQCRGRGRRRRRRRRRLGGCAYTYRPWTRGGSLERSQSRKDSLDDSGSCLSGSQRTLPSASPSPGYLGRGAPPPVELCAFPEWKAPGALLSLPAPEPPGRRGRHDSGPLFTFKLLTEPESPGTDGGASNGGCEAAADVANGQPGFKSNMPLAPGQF", "experiment": "Radioligand binding ([3H]prazosin) at cloned human α1B", "description": "(§3) These cell lines were prepared by transfecting the cloned cDNA or cloned genomic DNA or constructs containing both genomic DNA and cDNA encoding the human α-adrenoceptors as follows:\nThe construct involved ligating the full-length containing EcoRI brainstem cDNA fragment from λ ZapII into the expression vector. Stable cell lines were obtained as described above.\n(§4) Transfected cells from culture flasks were scraped into 5 ml of 5 mM Tris-HCl, 5 mM EDTA, pH 7.5, and lysed by sonication. The cell lysates were centrifuged at 1000 rpm. for 5 min at 4° C., and the supernatant was centrifuged at 30,000 ×g for 20 min at 4° C. The pellet was suspended in 50 mM Tris-HCl , 1 mM MgCl2, and 0.1% ascorbic acid at pH 7.5. […] The reaction was stopped by filtration through GF/B filters using a cell harvester."}, "human α1C adrenoceptor": {"target": "T3, human α1C adrenoceptor (Homo sapiens, UniProt P35348)", "T3 sequence (P35348 1-466)": "T1 sequence (P35348 1-466)", "experiment": "biochemical", "format": "binding", "description": "as §3\nThe construct involved ligating three partial overlapping fragments: a 5' 0.6 kb HincII genomic clone, a central 1.8 EcoRI hippocampal cDNA clone, and a 3' 0.6 Kb PstI genomic clone. The hippocampal cDNA fragment overlaps with the 5' and 3' genomic clones so that the HincII and PstI sites at the 5' and 3' ends of the cDNA clone, respectively, were utilized for ligation. This full-length clone was cloned into the KpnI site of the expression vector, using the 5' and 3' KpnI sites of the fragment, derived from vector (i.e., pBluescript) and 3'-untranslated sequences, respectively. Stable cell lines were obtained as described above.\nas §4"}, "human α1A adrenoceptor": {"target": "T4, human α1A adrenoceptor (Homo sapiens, UniProt P25100)", "T4 sequence (P25100 1-572)": "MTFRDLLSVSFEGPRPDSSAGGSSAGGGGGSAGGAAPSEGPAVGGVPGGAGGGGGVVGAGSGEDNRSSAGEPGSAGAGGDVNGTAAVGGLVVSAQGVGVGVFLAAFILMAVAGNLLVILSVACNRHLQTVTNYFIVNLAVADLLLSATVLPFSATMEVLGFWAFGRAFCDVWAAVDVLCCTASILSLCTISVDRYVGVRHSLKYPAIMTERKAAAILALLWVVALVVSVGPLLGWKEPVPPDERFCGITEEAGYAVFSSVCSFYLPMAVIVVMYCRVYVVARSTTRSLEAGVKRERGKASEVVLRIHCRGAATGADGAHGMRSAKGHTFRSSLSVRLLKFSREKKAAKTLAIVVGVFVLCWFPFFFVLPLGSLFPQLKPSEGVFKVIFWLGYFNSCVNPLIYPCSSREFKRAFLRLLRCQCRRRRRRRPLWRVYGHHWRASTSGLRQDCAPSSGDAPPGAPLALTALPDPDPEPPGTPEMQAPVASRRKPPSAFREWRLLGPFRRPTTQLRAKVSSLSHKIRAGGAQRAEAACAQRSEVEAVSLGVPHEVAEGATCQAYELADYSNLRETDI", "experiment": "biochemical", "format": "binding", "description": "as §3\nThe cells were grown, in a controlled environment (37° C., 5% CO2), as monolayers in Dulbecco's modified Eagle's Medium (GIBCO, Grand Island, N.Y.) containing 25 mM glucose and supplemented with 10% bovine calf serum, 100 units/ml penicillin g, and 100 μg/ml streptomycin sulfate.\nas §4"}, "[2]": {"target": "T5, dog BN, male (α1-adrenoceptor) (Canis lupus, UniProt A0A8I3NK63)", "T5 sequence (A0A8I3NK63 1-466)": "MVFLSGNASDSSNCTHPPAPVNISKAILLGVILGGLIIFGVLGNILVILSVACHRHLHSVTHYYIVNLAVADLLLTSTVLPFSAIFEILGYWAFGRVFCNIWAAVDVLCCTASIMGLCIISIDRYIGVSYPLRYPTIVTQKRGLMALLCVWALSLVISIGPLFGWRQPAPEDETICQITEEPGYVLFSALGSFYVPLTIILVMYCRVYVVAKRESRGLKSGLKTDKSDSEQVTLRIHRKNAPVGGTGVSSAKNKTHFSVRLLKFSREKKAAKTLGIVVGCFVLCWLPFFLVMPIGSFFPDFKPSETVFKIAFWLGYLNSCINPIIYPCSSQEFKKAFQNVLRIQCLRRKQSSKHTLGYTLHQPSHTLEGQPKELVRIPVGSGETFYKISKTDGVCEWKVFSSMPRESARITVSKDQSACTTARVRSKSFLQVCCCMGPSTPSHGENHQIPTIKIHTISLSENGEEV", "experiment": "Contractile study in isolated male dog bladder neck", "settings": "versus phenylephrine-induced contraction", "from_the_text": "as §1, §2"}, "[3]": {"settings": "cited from earlier work; for major side effect of use in incontinence (blood pressure): dose-dependent; for major side effect of use in incontinence (blood pressure) / CNS side effects in some patients: Andersson and Sjogren, 1982; for CNS side effects in some patients: stimulant actions in the CNS, Wein, 1987"}, "[4]": {"settings": "prodrug; cited from earlier work"}, "[5]": {"settings": "Andersson and Sjogren, 1982; cited from earlier work"}, "[6]": {"target": "T6, dog BN, female (α1-adrenoceptor) (Canis lupus, UniProt A0A8I3NK63)", "T6 sequence (A0A8I3NK63 1-466)": "T5 sequence (A0A8I3NK63 1-466)", "experiment": "Contractile study in isolated female dog bladder neck", "settings": "versus phenylephrine-induced contraction", "from_the_text": "as §1, §2"}, "[7]": {"target": "T7, rabbit urethra, male (α1-adrenoceptor) (Oryctolagus cuniculus, UniProt O02824)", "T7 sequence (O02824 1-466)": "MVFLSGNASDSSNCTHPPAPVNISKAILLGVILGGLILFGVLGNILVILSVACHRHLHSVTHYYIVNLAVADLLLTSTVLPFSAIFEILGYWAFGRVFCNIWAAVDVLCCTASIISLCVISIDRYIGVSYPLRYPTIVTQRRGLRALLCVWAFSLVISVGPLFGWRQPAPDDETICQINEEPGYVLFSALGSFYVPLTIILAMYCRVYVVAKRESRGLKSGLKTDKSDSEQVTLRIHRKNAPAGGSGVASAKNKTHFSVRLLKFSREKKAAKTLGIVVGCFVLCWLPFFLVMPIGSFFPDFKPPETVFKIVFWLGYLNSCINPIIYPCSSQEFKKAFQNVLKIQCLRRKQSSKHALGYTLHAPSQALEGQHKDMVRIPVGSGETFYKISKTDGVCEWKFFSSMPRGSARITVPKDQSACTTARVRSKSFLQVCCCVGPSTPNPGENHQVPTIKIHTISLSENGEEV", "experiment": "Contractile study in isolated male rabbit urethra", "settings": "versus phenylephrine-induced contraction", "from_the_text": "as §1, §2"}, "[8]": {"target": "T8, rabbit urethra, female (α1-adrenoceptor) (Oryctolagus cuniculus, UniProt O02824)", "T8 construct": "proximal urethra of male humans and male and female rabbits; from tissue; host or cells: rabbit proximal urethra strips, male or female", "T8 sequence (O02824 1-466)": "T7 sequence (O02824 1-466)", "experiment": "Contractile study in isolated female rabbit urethra", "settings": "versus phenylephrine-induced contraction; read-out: pKB Rabbit Urethra Female (converted)", "from_the_text": "as §1, §2"}},
  "note": "Like-named read-outs stand apart in the source and are kept apart here.",
  "data": [
    {"smiles": "COC(=O)C1=C(C)NC(C)=C(C(=O)OCCCN2CCC(c3ccccc3)(c3ccccc3)CC2)C1c1ccc([N+](=O)[O-])cc1.Cl", "note": "(racemic) [Compound 1, (±)-2,6-Dimethyl-4-(4-nitrophenyl)-1,4-dihydro-pyridine-3,5-dicarboxylicacid [3-(4,4-diphenylpiperidin-1-yl)propyl]ester methyl ester hydrochloride]", "values": [
      {"measurement": "Kb", "setting": "[1]", "value": 7.94, "unit": "nM"},
      {"measurement": "Ki", "setting": "human α1B adrenoceptor", "value": 79.4, "unit": "nM"},
      {"measurement": "Ki", "setting": "human α1C adrenoceptor", "value": 3.16, "unit": "nM"},
      {"measurement": "Ki", "setting": "human α1A adrenoceptor", "value": 316, "unit": "nM"},
      {"measurement": "pKB Dog BN Male", "setting": "[2]", "value": 6.2}
    ]},
    {"smiles": "CNC[C@H](O)c1cccc(O)c1", "note": "[phenylephrine]", "values": [
      {"measurement": "major side effect of use in incontinence (blood pressure)", "setting": "[3]", "value": "increase in blood pressure"}
    ]},
    {"smiles": "CC(N)C(O)c1ccccc1", "note": "(stereo not drawn) [phenylpropanolamine]", "values": [
      {"measurement": "major side effect of use in incontinence (blood pressure)", "setting": "[3]", "value": "increase in blood pressure"},
      {"measurement": "CNS side effects in some patients", "setting": "[3]", "value": "insomnia, anxiety and dizziness"}
    ]},
    {"smiles": "COc1ccc(OC)c(C(O)CNC(=O)CN)c1", "note": "(stereo not drawn) [midodrine]", "values": [
      {"measurement": "in vivo conversion to active phenylethylamine", "setting": "[4]", "value": "converted in vivo to the active phenylethylamine ST-1059"},
      {"measurement": "clinical efficacy in urinary incontinence", "setting": "[5]", "value": "has not been demonstrated conclusively"}
    ]},
    {"smiles": "COc1ccccc1N1CCN(CCN2C(=O)CC3(CCCC3)CC2=O)CC1", "note": "[BMY 7378]", "values": [
      {"measurement": "pKB Dog BN Female", "setting": "[6]", "value": 6.8},
      {"measurement": "pKB Rabbit Urethra Male", "setting": "[7]", "value": 6.5},
      {"measurement": "Kb", "setting": "[8]", "value": 794, "unit": "nM"},
      {"measurement": "Ki", "setting": "human α1B adrenoceptor; Table 2, antagonists, versus 3H-prazosin, read-out: pKI (antagonist affinity, 3H-prazosin binding) hα1B (converted)", "value": 100, "unit": "nM"},
      {"measurement": "pKB Dog BN Male", "setting": "[2]", "value": 7.1}
    ]},
    {"smiles": "Clc1cccc(Cl)c1N=C1NCCN1", "note": "[clonidine]", "values": [
      {"measurement": "undesirable side effects at therapeutic doses", "setting": "[3]; in addition to antihypertensive effect", "value": "dry mouth, sedation and orthostatic hypotension"}
    ]},
    {"smiles": "CN[C@@H](C)[C@H](O)c1ccccc1", "note": "[ephedrine]", "values": [
      {"measurement": "major side effect of use in incontinence (blood pressure)", "setting": "[3]", "value": "increase in blood pressure"},
      {"measurement": "CNS side effects in some patients", "setting": "[3]", "value": "insomnia, anxiety and dizziness"}
    ]}
  ]
}
